Results: US20260335347A1, “COMBINATION THERAPY WITH SPARSENTAN AND A SGLT2 INHIBITOR FOR TREATING KIDNEY DISEASES OR DISORDERS” (Travere Therapeutics, Inc., priority 2022, published 2026)
Read-outs that look alike come from different tables or passages of the source.

Tests used:
patients with FSGS [1] = test: DUPLEX trial: proportion of patients achieving UP/C ≤1.5 g/g and >40% reduction in UP/C (FPRE); type: in vivo, human; conditions: p=0.0094; for patients achieving FPRE (UP/C ≤1.5 g/g and >40 percent reduction in UP/C from Baseline): after 36 weeks of treatment, first approximately 190 patients
Protocol: (§1) The efficacy and safety of sparsentan were evaluated in DUPLEX, a randomized, double-blind, active-controlled, multicenter, global trial in patients with FSGS after exclusion of known secondary causes.
The trial enrolled patients with eGFR≥30 mL/min/1.73 m^2 and urinary protein to creatinine ratio (UP/C)>1.5 g/g. Randomization was stratified based on eGFR (≥30 to <60 mL/min/1.73 m^2 versus eGFR≥60 mL/min/1.73 m^2) and UP/C values (≤3.5 g/g versus >3.5 g/g for patients≥18 years of age, or ≤2 g/g versus >2 g/g for patients<18 years of age).
(§2) All patients were randomized at a 1:1 ratio to receive sparsentan or the active control, irbesartan. Sparsentan was administered at a dose of 400 mg once daily by mouth for 2 weeks and then titrated to 800 mg once daily as tolerated. Irbesartan was administered at a dose of 150 mg once daily by mouth for 2 weeks and then titrated to 300 mg once daily as tolerated. In patients weighing 50 kg or less, dosing was halved in both treatment arms (e.g., sparsentan administered at a dose of 200 mg once daily by mouth for 2 weeks and then titrated to 400 mg once daily as tolerated).
The proportion of patients achieving a UP/C≤1.5 g/g and a >40% reduction from baseline in UP/C was evaluated after patients completed 36 weeks of treatment.
In the DUPLEX Study, a total of 371 patients were randomized 1:1 to receive either sparsentan or irbesartan, the active control. The study protocol provided for an unblinded analysis to evaluate the interim efficacy endpoint—the proportion of patients achieving FPRE, which is a clinically meaningful endpoint defined as urine protein-to-creatinine ratio (UP/C)≤1.5 g/g and a >40 percent reduction in UP/C from Baseline, at Week 36—following the first approximately 190 patients reaching 36 weeks of treatment. After 36 weeks of treatment, 42.0 percent of patients receiving sparsentan achieved FPRE, compared to 26.0 percent of irbesartan-treated patients (p=0.0094).

patients with IgAN [2] = test: PROTECT Phase 3 trial: change in proteinuria (UP/C) and eGFR, sparsentan vs irbesartan; type: in vivo, human; conditions: for mean reduction in proteinuria (UP/C) from baseline: after 36 weeks of treatment, first 280 patients, sparsentan 200 mg titrated to 400 mg once daily or irbesartan 150 mg titrated to 300 mg once daily, oral, p<0.0001
Protocol: (§3) The long-term nephroprotective potential of treatment with sparsentan was evaluated in PROTECT, a 114-week, randomized, global, multicenter, double-blind, parallel-group, active-control Phase 3 clinical study in patients with IgAN who have persistent overt proteinuria and remain at high risk of disease progression despite being on a stable dose (or doses) of an angiotensin-converting enzyme inhibitor (ACEI) and/or angiotensin receptor blocker (ARB) that is (are) a maximum tolerated dose that is at least one half of the maximum labeled dose (MLD) (according to approved labeling). The purpose of the study is to evaluate the potential benefit of sparsentan on kidney function by analyzing change in proteinuria (protein in urine) and estimated glomerular filtration rate (eGFR) as compared to current standard treatment.
404 patients aged≥18 years were enrolled in the study globally.
Enrolled patients were at high risk of progressing to renal failure. The trial enrolled patients with eGFR≥30 mL/min/1.73 m^2 and urinary protein to creatinine ratio (UP/C)≥1.0 g/g at screening.
Inclusion criteria included: age 18 years or older at screening; biopsy-proven primary IgAN; proteinuria (UP/C) of ≥1 g/day at screening; eGFR≥30 mL/min/1.73 m^2 at screening; currently on stable dose of ACEI and/or ARB therapy, for at least 12 weeks prior to screening (maximum tolerated dose and at least one-half of the maximum labeled dose); systolic BP≤150 mmHg and diastolic BP≤100 mmHg at screening; willing to undergo change in ACEI and/or ARB and anti-hypertensive medications; and agree to contraception.
(§4) All patients were randomized at a 1:1 ratio to receive sparsentan or the active control, irbesartan (an angiotensin receptor blocker), as a single oral morning dose. Sparsentan was administered at a dose of 200 mg once daily by mouth for 2 weeks and then titrated to 400 mg once daily as tolerated. Irbesartan was administered at a dose of 150 mg once daily by mouth for 2 weeks and then titrated to 300 mg once daily as tolerated.
Change in proteinuria (UP/C) from baseline (Day 1) at Week 36 in sparsentan-treated patients as compared to irbesartan-treated patients was assessed. The Week 36 UP/C was based on a 24-hour urine sample. Secondary outcome measures included eGFR over a 52-week period and a 104-week period following the initial acute effect of randomized therapy. […] Also assessed was eGFR over a 58-week and a 110-week (approximately 2-year) period following the initiation of randomized therapy (the analysis is from Day 1 to 58 weeks postrandomization or from Day 1 to 110 weeks postrandomization, eGFR total slope at 2 years). […]

patients with FSGS [3] = conditions: Phase 2 clinical study; cited from earlier work
patients with IgAN [4] = test: PROTECT Phase 3 trial: safety, interim analysis; type: in vivo, human; conditions: 400 mg once daily
Protocol: as §3, §4
The study provided for an analysis of topline results at 36 weeks, following the first 280 patients reaching 36 weeks of treatment.

[5] = Open-label drug-drug interaction study in healthy adults: plasma dapagliflozin PK; type: in vivo, human; conditions: for AUC(0-inf) / AUC(0-t) / Cmax: human, plasma, 10 mg; for AUC(0-inf): n = 16; for AUC(0-t) / Cmax: n = 20
Protocol: (§5) Potential drug-drug interactions (DDI) of sparsentan with SGLT2 inhibitors are not known. The safety of administering sparsentan and dapagliflozin was evaluated in an open-label, drug-drug interaction study in healthy […]. This phase 1 study examined the effect of multiple doses of sparsentan on the pharmacokinetics (PK) of single-dose dapagliflozin and assessed the safety and tolerability of single-dose dapagliflozin when co-administered after multiple doses of sparsentan in healthy adults.
(§6) The open-label DDI study included Period 1 (Days 1-5; single dose of 10 mg dapagliflozin (“DAPA”) on Day 1, PK sampling pre-dose and up to 96 hours post-dose) and Period 2 (Days 5-14; 800 mg sparsentan (“SPAR”) once daily for 10 days with single 10 mg dose DAPA co-administered on Day 11, DAPA PK sampling pre-dose and up to 96 hours after Day 11 dosing). To avoid hypoglycemic events, subjects received an oral 20% glucose solution in water with the DAPA dose and every ~15 minutes up to 4 hours post-dose. Plasma concentrations and PK parameters of DAPA and SPAR were summarized. Subjects with evaluable data for both periods were included in an ANOVA mixed model analysis of DAPA AUC0-t, AUC0-inf, and Cmax following DAPA+SPAR vs DAPA alone. Treatment-emergent adverse events (TEAEs) were summarized.

patients with FSGS [6] = test: DUPLEX trial: interim safety; type: in vivo, human
Protocol: as §1, §2

[7] = tested on: endothelin (A type) receptors ("ETA" receptors); conditions: selective dual-acting receptor antagonist; cited from earlier work
[8] = tested on: angiotensin II receptors (Type 1) ("AT1" receptors); conditions: selective dual-acting receptor antagonist; cited from earlier work
[9] = Open-label drug-drug interaction study in healthy adults: safety and tolerability (TEAEs); type: in vivo, human; conditions: 10 mg DAPA, 800 mg SPAR once daily
Protocol: as §5, §6

In the case of `CCCCC1=NC2(CCCC2)C(=O)N1Cc1ccc(-c2ccccc2-c2nnn[nH]2)cc1` [irbesartan], the “patients achieving FPRE (UP/C ≤1.5 g/g and >40 percent reduction in UP/C from Baseline)” value (patients with FSGS [1]) is reported as 26.0% and the “mean reduction in proteinuria (UP/C) from baseline” value (patients with IgAN [2]) is reported as 15.1%.

In the case of `CCCCC1=NC2(CCCC2)C(=O)N1Cc1ccc(-c2ccccc2S(=O)(=O)Nc2noc(C)c2C)c(COCC)c1` [sparsentan, 2-[4-[(2-butyl-4-oxo-1,3-diazaspiro[4.4]non-1-en-3-yl)methyl]-2-(ethoxymethyl)phenyl]-N-(4,5-dimethyl-1,2-oxazol-3-yl)benzenesulfonamide], the “reduction of proteinuria in patients with FSGS” value (patients with FSGS [3]) is given as “shown to reduce proteinuria”, the “tolerability (preliminary interim results)” value (patients with IgAN [4]) is given as “generally well-tolerated” and the “effect of multiple dosing of SPAR on single-dose DAPA PK” value ([5]; healthy adults, 800 mg SPAR once daily for 10 days) is given as “did not affect single-dose DAPA PK”. The “proportion achieving composite endpoint, sparsentan arm vs irbesartan arm” value (patients with FSGS [1]; Week 36, vs irbesartan) was “significantly higher”, the “patients achieving FPRE (UP/C ≤1.5 g/g and >40 percent reduction in UP/C from Baseline)” value (patients with FSGS [1]) was 42.0% and the “reduction in proteinuria compared to the irbesartan-treated group” value (patients with IgAN [2]; 36 weeks, sparsentan-treated vs irbesartan-treated group) was “greater than threefold reduction in proteinuria”. For the same compound, the “mean reduction in proteinuria (UP/C) from baseline” value (patients with IgAN [2]) was 49.8%, the “preliminary eGFR data at interim analysis” value (patients with IgAN [2]; interim analysis, after two years of treatment) was “indicative of a potential clinically meaningful treatment effect” and the “tolerability (preliminary review of interim safety results)” value (patients with FSGS [6]; FSGS) was “generally well-tolerated”. The “overall safety profiles between treatment groups” value (patients with FSGS [6]; sparsentan vs active control treatment group) was “generally comparable between treatment groups”, the “affinity for endothelin (A type) receptors” value [7] was “selective dual-acting receptor antagonist with affinity for endothelin (A type) receptors” and the “affinity for angiotensin II receptors (Type 1)” value [8] was “selective dual-acting receptor antagonist”.

In the case of `CCOc1ccc(Cc2cc([C@@H]3O[C@H](CO)[C@@H](O)[C@H](O)[C@H]3O)ccc2Cl)cc1` [DAPA, dapagliflozin], the “tolerability of single-dose DAPA co-administered with multiple doses of SPAR” value [9] is reported as “appeared to be well tolerated”, the “mean peak and extent of DAPA exposure (Cmax and AUC)” value ([5]; 10 mg DAPA alone vs 10 mg DAPA+800 mg SPAR) is reported as “similar” and the AUC(0-inf) ([5]; single 10 mg DAPA alone, Day 1, read-out: AUC0-inf, geometric LSMs (DAPA alone)) is reported as 534 ng·h/mL. For the same compound, the AUC(0-t) ([5]; single 10 mg DAPA alone, Day 1, read-out: AUC0-t, geometric LSMs (DAPA alone)) was 509 ng·h/mL, the Cmax ([5]; single 10 mg DAPA alone, Day 1, read-out: Cmax, geometric LSMs (DAPA alone)) was 73.9 ng/mL and the AUC(0-inf) ([5]; single 10 mg DAPA co-administered on Day 11 with 800 mg SPAR once daily for 10 days, read-out: AUC0-inf, geometric LSMs (DAPA + SPAR)) was 565 ng·h/mL. For the same compound, the AUC(0-t) ([5]; single 10 mg DAPA co-administered on Day 11 with 800 mg SPAR once daily for 10 days, read-out: AUC0-t, geometric LSMs (DAPA + SPAR)) was 526 ng·h/mL, the Cmax ([5]; single 10 mg DAPA co-administered on Day 11 with 800 mg SPAR once daily for 10 days, read-out: Cmax, geometric LSMs (DAPA + SPAR)) was 79.9 ng/mL and the “Cmax, GLSMR (DAPA + SPAR vs DAPA alone)” value ([5]; plasma dapagliflozin, 90% CI 96.0-121.8, intra-subject CV% 22.0) was 108.2%. The “AUC0-t, GLSMR (DAPA + SPAR vs DAPA alone)” value ([5]; plasma dapagliflozin, 90% CI 99.9-107.0, intra-subject CV% 6.3) was 103.4% and the “AUC0-inf, GLSMR (DAPA + SPAR vs DAPA alone)” value ([5]; plasma dapagliflozin, 90% CI 103.1-108.9, intra-subject CV% 4.4) was 105.9%.
